From US6610708B1, “Cyclic amino compounds” (Sankyo Company, Limited, priority 1998, dated 2003)

Assays:
[1] = test system: Human Platelets; assay: Antiaggregatory action in human platelets (ADP-induced aggregation in platelet-rich plasma); type: cell-based; conditions: Platelet, human PRP, read-out: Test 1 (% inhibition) of platelet aggregation; for inhibition at 10 µg/mL: 10 μg/ml test compound; for inhibition at 30 µg/mL: 30 μg/ml test compound; for inhibition at 100 µg/mL: 100 μg/ml test compound
Description: Antiaggregatory Action in Human Platelets
Platelet aggregation was measured using an automatic platelet aggregometer (PAM-8C, Mebanix) using the method of G.V.R. Born [Nature, 194, 927-929 ([…])] with a slight modification. Blood was collected from the antecubital vein of healthy volunteers who had not taken any medications for two weeks using 3.8% sodium citrate as an anticoagulant ( 1/9 volumes of blood). Platelet-rich plasma (PRP) was obtained by centrifugation (CR5DL, Hitachi) at 200× g for 15 min at room temperature. Platelet-poor plasma (PPP) was obtained by centrifugation of the remaining blood at 2,000× g for 10 min at room temperature. Platelet counts in PRP were measured by an automatic hematology analyzer (K-1000, Toa Iyo Denshi), and adjusted to 3×10^8 /ml by adding PPP. PRP prepared as described above was used for the platelet aggregation experiment. PRP (0.24 ml) containing a test compound was added to a cuvette and set placed in the platelet aggregometer. After pre-incubation for 1.5 min at 37° C., 0.01 ml of 0.25 mM ADP were added to the cuvette to induce platelet aggregation. Platelet aggregation was monitored for 10 min.
Antiaggregatory action of the test compound was determined as a percent inhibition (%) against platelet aggregation of a control (free of the test compound).

[2] = test system: platelet aggregation; assay: Antiaggregatory action in rats (ADP-induced platelet aggregation in PRP after intravenous administration); type: in vivo; conditions: Rattus norvegicus, 1 h, male SD rats, blood collected one hour after administration, versus control rats, read-out: Test 2 (% inhibition)
Description: Antiaggregatory Action in Rats
Platelet aggregation was measured using an automatic platelet aggregometer (PAM-8C, Mebanix) using the method of G.V.R. Born [Nature, 194, 927-929(1962)] with a slight modification. The experimental animals were male SD rats (Japan SLC). One hour after intravenous administration of a test compound to the rats, blood was collected from the abdominal aorta under anesthesia, using 3.8% sodium citrate as an anticoagulant ( 1/9 volumes of blood). Platelet-rich plasma (PRP) was obtained by centrifugation (CR5DL, Hitachi) at 230× g for 15 min at room temperature. Platelet-poor plasma (PPP) was obtained by centrifugation of the remaining blood at 2,000× g for 10 min at room temperature. Platelet counts in PRP were measured by an automatic hematology analyzer (K-1000, Toa Iyo Denshi), and adjusted to 5×10^8 /ml by adding PPP, and then used for the platelet aggregation experiment. PRP (0.24 ml) was added to a cuvette and placed in the platelet aggregometer. After pre-incubation for 1.5 min at 37° C., 0.01 ml of 0.75 mM ADP were added to the cuvette to induce platelet aggregation. Platelet aggregation was monitored for 8 min.
Antiaggregatory action (% inhibition) of the test compound was determined from a comparison of the maximum aggregation of the test compound-treated rat with that of control rats (free of the administration of the test compound).

| SMILES | inhibition at 10 µg/mL [1] [%] | inhibition at 30 µg/mL [1] [%] | inhibition at 100 µg/mL [1] [%] | inhibition at 10 mg/kg [2] [%] | melting point [°C] |
| --- | --- | --- | --- | --- | --- |
| CCOC(=O)/C=C1\CN(C(C(=O)C2CC2)c2ccccc2F)CCC1SS(=O)(=O)c1ccc(C)cc1 (stereo not drawn) [Example 6 (d), (E)-1-(α-Cyclopropylcarbonyl-2-fluorobenzyl)-3-ethoxycarbonylmethylidene-4-(4-methylphenylsulfonylthio)piperidine] | 22.5 | 53.2 | 100 | 51.8 | – |
| CCOC(=O)/C=C1\CN(C(C(=O)OC)c2ccccc2Cl)CCC1SS(=O)(=O)c1ccc(C)cc1.Cl (stereo not drawn) [Example 7 (d), (E)-1-(2-chloro-α-methoxycarbonylbenzyl)-3-ethoxycarbonylmethylidene-4-(4-methylphenylsulfonylthio)piperidine hydrochloride] | 24.6 | 60 | 99.1 | 59 | 73 to 78 |
| N[C@@H](CSSC1CCN(C(C(=O)C2CC2)c2ccccc2F)C/C1=C/C(=O)O)C(=O)O (stereo partly drawn) [Example 19 (d), (Z)-4-[(R)-2-Amino-2-carboxyethyldisulfanyl]-3-carboxymethylidene-1-(α-cyclopropylcarbonyl-2-fluorobenzyl)piperidine] | – | – | – | 89.2 | – |
